From EP0908457B1, “3-(1,2-benzisothiazol- and isoxazol-5-Y1)-2,4(1H,3H)-pyrimidinedione or thione and 3-(1,2-benzisothiazol- and isoxazol-5-y1)-4(3H)-pyrimidinone or thione herbicidal agents” (BASF AKTIENGESELLSCHAFT, priority 1997, dated 1999)

Experiments:
[1] = tested on: Cyperus iria; assay: Preemergence weed control under flooded paddy conditions, CYPIR (Rice Flatsedge); type: in vivo; details: preemergence weeds, flooded paddy, rated three to four weeks after treatment
[2] = tested on: Oryza sativa, (L.) Tebonnet; assay: Rice tolerance to post-transplant applications under flooded paddy conditions (Example 187), ORYSAT (Rice, Tebonnet); details: rated three to four weeks after treatment
[3] = tested on: Cyperus serotinus, Rottb.; assay: Preemergence weed control under flooded paddy conditions, CYPSE (Flatsedge); type: in vivo; details: preemergence weeds, rated three to four weeks after treatment
[4] = tested on: Echinochloa oryzoides (Ard.) Fritsch.; assay: Preemergence weed control under flooded paddy conditions, ECHORC (Watergrass (Calif.)); type: in vivo; details: preemergence weeds, flooded paddy, rated three to four weeks after treatment
[5] = tested on: Sagittaria pygmaea, L.; assay: Preemergence weed control under flooded paddy conditions, SAGPY (Arrowhead (Pygmaea)); type: in vivo; details: preemergence weeds, flooded paddy, rated three to four weeks after treatment
Also: meaning of each grade not given here.

| Structure (SMILES) | herbicidal effect rating, CYPIR ([1]; Rate 0.0320 kg/ha) | herbicidal effect rating, CYPIR ([1]; Rate 0.0620 kg/ha) | herbicidal effect rating, CYPIR ([1]; Rate 0.1250 kg/ha) | herbicidal effect rating, CYPIR ([1]; Rate 0.2500 kg/ha) | herbicidal effect rating ORYSAT ([2]; Rate 0.0320 kg/ha) | herbicidal effect rating ORYSAT ([2]; Rate 0.0620 kg/ha) | herbicidal effect rating ORYSAT ([2]; Rate 0.1250 kg/ha) | herbicidal effect rating ORYSAT ([2]; Rate 0.2500 kg/ha) | herbicidal effect rating, CYPSE ([3]; Rate 0.0320 kg/ha) | herbicidal effect rating, CYPSE ([3]; Rate 0.0620 kg/ha) | herbicidal effect rating, CYPSE ([3]; Rate 0.1250 kg/ha) | herbicidal effect rating, CYPSE ([3]; Rate 0.2500 kg/ha) | herbicidal effect rating, ECHORC ([4]; Rate 0.0320 kg/ha) | herbicidal effect rating, ECHORC ([4]; Rate 0.0620 kg/ha) | herbicidal effect rating, ECHORC ([4]; Rate 0.1250 kg/ha) | herbicidal effect rating, ECHORC ([4]; Rate 0.2500 kg/ha) | herbicidal effect rating, SAGPY ([5]; Rate 0.0320 kg/ha) | herbicidal effect rating, SAGPY ([5]; Rate 0.0620 kg/ha) | herbicidal effect rating, SAGPY ([5]; Rate 0.1250 kg/ha) | herbicidal effect rating, SAGPY ([5]; Rate 0.2500 kg/ha) |
| --- | --- | --- | --- | --- | --- | --- | --- | --- | --- | --- | --- | --- | --- | --- | --- | --- | --- | --- | --- | --- |
| CSc1ccc(C)cc1-c1nsc2ccc(-n3c(=O)cc(C(F)(F)F)n(C)c3=O)cc12 [Example 342, 2,4(1H,3H)-Pyrimidinedione, 1-methyl-3-{3-[6-(methylthio)-m-tolyl]-1,2-benzisothiazol-5-yl}-6-(trifluoromethyl)-] | 0.0 | 0.0 | 4.0 | 8.0 | 0.0 | 0.0 | 2.0 | 3.0 | 0.0 | 0.0 | 0.0 | 9.0 | 4.0 | 4.0 | 7.0 | 7.0 | 0.0 | 0.0 | 0.0 | 2.0 |
| Cn1c(C(F)(F)F)cc(=O)n(-c2ccc3snc(-c4ccccc4OCC(=O)NS(=O)(=O)CCl)c3c2)c1=O [Example 344, Acetamide, N-[(chloromethyl)sulfonyl]-2-{o-{5-[3,6-dihydro-3-methyl-2,6-dioxo-4-(trifluoromethyl)-1(2H)-pyrimidinyl]-1,2-benzisothiazol-3-yl}phenoxy}-] | 6.0 | 6.0 | 7.0 | 9.0 | 2.0 | 5.0 | 5.0 | 9.0 | 6.0 | 6.0 | 6.0 | 6.0 | 4.0 | 7.0 | 7.0 | 9.0 | 0.0 | 0.0 | 3.0 | 6.0 |
| COC(=O)COc1ccc(OC)cc1-c1nsc2ccc(-n3c(=O)cc(C(F)(F)F)n(C)c3=O)cc12 [Example 347, Acetic acid, {2-{5-[3,6-dihydro-3-methyl-2,6-dioxo-4-(trifluoromethyl)-1(2H)-pyrimidinyl]-1,2-benzisothiazol-3-yl}-4-methoxyphenoxy}-, methyl ester] | 7.0 | 9.0 | 9.0 | 9.0 | 3.0 | 6.0 | 7.0 | 9.0 | 0.0 | 0.0 | 4.0 | 7.0 | 7.0 | 9.0 | 9.0 | 9.0 | 2.0 | 3.0 | 4.0 | 5.0 |
